For test [1], the target named is Fibroblast growth factor receptor 2 (Homo sapiens) (UniProt P21802). As to conditions: Compound concentration 20.0 uM.
Description: Thermal Shift Assay. Domain: start/stop: T457-E768
The target of test [2] is T1, Peregrin (Homo sapiens) (UniProt P55201).
T1 sequence (whole entry): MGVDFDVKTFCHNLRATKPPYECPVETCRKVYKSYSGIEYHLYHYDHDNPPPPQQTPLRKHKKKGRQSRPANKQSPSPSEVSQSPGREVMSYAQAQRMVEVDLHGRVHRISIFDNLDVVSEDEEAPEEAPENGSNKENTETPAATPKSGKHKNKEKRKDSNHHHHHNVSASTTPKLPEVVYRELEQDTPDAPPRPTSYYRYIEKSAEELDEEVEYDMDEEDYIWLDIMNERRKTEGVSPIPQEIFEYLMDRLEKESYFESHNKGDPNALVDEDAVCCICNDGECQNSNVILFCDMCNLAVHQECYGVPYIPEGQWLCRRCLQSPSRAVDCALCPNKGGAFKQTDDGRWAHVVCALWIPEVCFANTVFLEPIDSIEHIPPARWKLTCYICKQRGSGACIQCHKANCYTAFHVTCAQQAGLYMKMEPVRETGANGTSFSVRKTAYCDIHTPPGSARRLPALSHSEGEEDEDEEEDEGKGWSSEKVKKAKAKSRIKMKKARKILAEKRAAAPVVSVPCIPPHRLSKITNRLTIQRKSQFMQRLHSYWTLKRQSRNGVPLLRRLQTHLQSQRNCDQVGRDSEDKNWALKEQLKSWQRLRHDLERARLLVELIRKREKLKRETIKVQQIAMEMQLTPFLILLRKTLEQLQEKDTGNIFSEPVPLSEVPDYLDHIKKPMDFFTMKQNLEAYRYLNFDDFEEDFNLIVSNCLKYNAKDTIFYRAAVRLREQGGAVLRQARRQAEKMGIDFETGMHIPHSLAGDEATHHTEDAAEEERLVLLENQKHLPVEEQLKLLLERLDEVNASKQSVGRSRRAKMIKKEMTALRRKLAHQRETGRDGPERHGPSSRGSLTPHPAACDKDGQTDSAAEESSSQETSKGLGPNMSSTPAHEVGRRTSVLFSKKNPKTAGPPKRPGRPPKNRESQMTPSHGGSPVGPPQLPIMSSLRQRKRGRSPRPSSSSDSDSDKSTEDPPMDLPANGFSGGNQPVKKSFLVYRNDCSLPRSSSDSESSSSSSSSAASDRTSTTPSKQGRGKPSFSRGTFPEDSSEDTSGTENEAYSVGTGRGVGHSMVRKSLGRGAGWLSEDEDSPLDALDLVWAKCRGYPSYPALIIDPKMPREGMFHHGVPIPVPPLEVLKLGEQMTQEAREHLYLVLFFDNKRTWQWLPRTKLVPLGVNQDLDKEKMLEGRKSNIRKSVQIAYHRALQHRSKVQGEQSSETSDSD
The conditions noted are these: Compound concentration 20.0 uM.

The source of these data is ChEMBL document CHEMBL5724796, “Tm Shift (DSF) assay results for EUbOPEN Chemogenomics Library” (2024).

Residues, ends and D or L forms follow the SMILES beside them. *: point of attachment. Cbz = O=C(OCc1ccccc1)*; CH2F = FC*

The term ΔTm denotes the shift of the melting midpoint relative to a reference.

Sequence of Fibroblast growth factor receptor 2 (Homo sapiens) (P21802 22-821 limits assumed): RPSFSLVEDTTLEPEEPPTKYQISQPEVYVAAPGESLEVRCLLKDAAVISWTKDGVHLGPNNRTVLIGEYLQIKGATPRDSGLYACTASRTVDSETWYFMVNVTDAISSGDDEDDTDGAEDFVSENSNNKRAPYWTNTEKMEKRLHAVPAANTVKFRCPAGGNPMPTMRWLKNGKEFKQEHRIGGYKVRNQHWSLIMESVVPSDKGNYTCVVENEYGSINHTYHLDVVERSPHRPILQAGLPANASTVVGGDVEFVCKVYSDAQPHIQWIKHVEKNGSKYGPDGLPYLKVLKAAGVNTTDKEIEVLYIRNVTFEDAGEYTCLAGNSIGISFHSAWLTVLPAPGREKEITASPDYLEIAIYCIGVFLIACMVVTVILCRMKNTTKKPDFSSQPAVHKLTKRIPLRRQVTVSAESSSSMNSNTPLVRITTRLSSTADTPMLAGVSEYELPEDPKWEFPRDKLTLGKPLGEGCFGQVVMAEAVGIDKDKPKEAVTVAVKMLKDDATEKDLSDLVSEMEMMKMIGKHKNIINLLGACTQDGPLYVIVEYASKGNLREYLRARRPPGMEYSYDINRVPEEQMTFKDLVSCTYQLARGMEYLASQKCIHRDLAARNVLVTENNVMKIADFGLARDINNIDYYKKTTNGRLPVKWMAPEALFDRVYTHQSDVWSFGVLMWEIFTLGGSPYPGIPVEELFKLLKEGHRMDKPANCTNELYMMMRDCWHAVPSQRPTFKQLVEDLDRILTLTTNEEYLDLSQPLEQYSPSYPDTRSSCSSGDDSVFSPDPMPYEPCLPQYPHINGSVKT

For the compound `CN1C(=O)c2c(nn(Cc3ccc(-c4cccc(F)n4)cc3)c2Nc2ccccc2)N2C1=N[C@@H]1CCC[C@@H]12`, the ΔTm is -0.21 °C in test [1] and -0.45 °C in test [2].
Taken in the same sequence, the figures for `C[C@H](Nc1cc(Cl)nc2c1cnn2[C@@H]1O[C@H](COP(=O)(O)CP(=O)(O)O)[C@@H](O)[C@H]1O)c1ccccc1F` were 0.2 °C and -1.02 °C.
Taken in the same sequence, the figures for `O=C(Nc1cc(C(F)F)ns1)Nc1cc(F)ncc1CO` were -0.3 °C and 3.9 °C.
Taken in the same sequence, the figures for `CN1CCN2c3c(cccc31)[C@@H]1CN(CCCC(=O)c3ccc(F)cc3)CC[C@@H]12` were -0.37 °C and -0.19 °C.
Consider `CNCCN(C)Cc1cn[nH]c1-c1ccc(OC2CC(OCCC3CCOCC3)C2)cc1` (configuration not stated), for which the figures for the ΔTm in test [1] and in test [2] were 0.29 °C and -0.84 °C, respectively.
Taken in the same sequence, the figures for `CCOCC1(COCC)CCC(c2n[nH]cc2CN(C)CCNC)CC1` were -0.35 °C and -0.75 °C.
With `CC(=O)C(=Cc1cc(O)c(O)c([N+](=O)[O-])c1)C(C)=O`, the thermal shift (ΔTm) in test [1] is -0.23 °C; in test [2], 0.33 °C.
For `COc1cn(-c2ccc(-n3cccn3)cc2F)nc(-c2ccnn2-c2ccccc2)c1=O`, in that order: 0.54 °C and 1.13 °C.
For `CCS(=O)(=O)N1CC(CC#N)(n2cc(-c3ncnc4[nH]ccc34)cn2)C1`, in that order: 1.48 °C and -1.09 °C.
Taken in the same sequence, the figures for `Cc1nc(-c2cnn(C)c2-c2ccc(C(F)(F)F)cn2)c2c(N3CCC3)ncnn12` were 0.06 °C and 0.67 °C.
Turning to `CCCn1/c(=N/C(=O)c2cccc(C(N)=O)c2)[nH]c2ccccc21`, the ΔTm is 0.22 °C in test [1] and -1.26 °C in test [2].
Regarding `COc1nc(N)nc(Nc2cc(S(N)(=O)=O)ccc2N[C@@H](c2cccc3c2OC(F)(F)O3)c2ncccc2Cl)n1`, the figures for the ΔTm in test [1] and in test [2] were 1.9 °C and -3.63 °C, respectively.
Taken in the same sequence, the figures for `CC(=O)N1CCC(Nc2cc(C(=O)NC[C@H](O)CN3CCc4ccccc4C3)ncn2)CC1` were 0.28 °C and -1.13 °C.
Turning to `O=C(C[C@@H](C(F)F)n1ccc(F)n1)N1CCC(O)(Cn2cnc3c(cnn3-c3ccc(F)cc3)c2=O)CC1`, the values for the ΔTm in test [1] and in test [2] were 0.2 °C and 0.9 °C, respectively.
Taken in the same sequence, the figures for `O=C(NO)c1ccc(CN(c2cnccn2)c2cnccn2)cc1` were -0.14 °C and -0.86 °C.
Taken in the same sequence, the figures for `O=C(O)C1CCCN(CCC=C(c2ccccc2)c2ccccc2)C1` (configuration not stated) were 0.41 °C and 0.59 °C.
For `CN1CCN(c2cc(C(=O)Nc3ncc(SCc4cccc(C(F)(F)F)c4)s3)ccn2)CC1`, in that order: 0.89 °C and -1.6 °C.
On to `CN1CCc2c(n(Cc3ccc(C(=O)NO)cc3)c3ccccc23)C1`, for which the results for the ΔTm in test [1] and in test [2] were -3.78 °C and -0.68 °C, respectively.
For `CC(C)[C@@H]1C(=O)N(S(C)(=O)=O)[C@@H]2CCN(C(=O)/C=C/CN3CCCCC3)[C@H]21`, in that order: 0.49 °C and -1.67 °C.
On to `CC(C)(CNC(=O)c1cccc(-c2noc(C(F)(F)F)n2)c1)c1coc(-c2ccccc2)n1`, for which the results for the ΔTm in test [1] and in test [2] were 0.16 °C and -1.34 °C, respectively.
As for `C[C@@H](Nc1nc2c(cnn2C2CCCC2)c(=O)[nH]1)C(=O)N1CC[C@H](F)C1`, the ΔTm in test [1] is -0.04 °C; in test [2], -0.37 °C.
For `COc1cccc(Nc2c(C(N)=O)cnc3c(C)cc(S(=O)(=O)c4cccc(C(=O)N(C)C)c4)cc23)c1`, in that order: -0.11 °C and -1.59 °C.
Taken in the same sequence, the figures for `Cc1noc2c1-c1ccccc1C(c1ccc(Cl)cc1)=N[C@H]2CC(N)=O` were -0.03 °C and 2.09 °C.
Turning to `c1ccc(Cn2c(-c3ccc(OC[C@H](C4CCNCC4)n4c(-c5ccccc5)nc5ccccc54)cc3)nc3ccccc32)cc1`, the values for the ΔTm in test [1] and in test [2] were -8.18 °C and -5.25 °C, respectively.
Taken in the same sequence, the figures for `Nc1cc2c3c(c1)C(c1ccccc1)=N[C@@H](NC(=O)c1cccnc1)C(=O)N3CC2` were 0.08 °C and 0.71 °C.
Taken in the same sequence, the figures for `CS(=O)(=O)Nc1ccc2oc3c(OC(F)F)ccc(C(=O)Nc4c(Cl)cncc4Cl)c3c2c1` were -0.38 °C and 0.46 °C.
On to `CC(C)(C)OC(=O)Nc1ccc(CNc2nccc(Nc3cc(C(=O)OC(C)(C)C)[nH]n3)n2)cc1`, for which the figures for the thermal shift (ΔTm) in test [1] and in test [2] were 1.22 °C and -1.32 °C, respectively.
For `O=C(NO)C(c1ccc(-c2ncc(C(F)(F)F)cn2)cc1)c1ccccc1F` (configuration not stated), in that order: -0.81 °C and -0.82 °C.
Regarding `COc1cc(C(C)C)c2c(c1)S(=O)(=O)N(COc1cc(=O)n3cccc(OCCN4CCCCC4)c3n1)C2=O`, the ΔTm in test [1] was 1.04 °C; in test [2], -1.13 °C.
With `COc1ccc(-n2c(SCCCN3C(=O)c4cccc5cccc(c45)C3=O)nnc2-c2ccncc2)cc1`, the values for the ΔTm in test [1] and in test [2] were 0.21 °C and 0.39 °C, respectively.
Taken in the same sequence, the figures for `COc1cccc(-c2nccc3c2CN(c2ccccc2)C3=O)c1` were 0.77 °C and -0.63 °C.
Taken in the same sequence, the figures for `CNc1ncc2cc(-c3cc(NC(=O)NCCC(C)(C)C)c(F)cc3C)c(C)nc2n1` were 5.58 °C and -0.16 °C.
Taken in the same sequence, the figures for `CCCN(CCC)c1ccc(C=O)cc1Br` were 0.23 °C and -0.41 °C.
As to `COc1c(CN)cc(CN)cc1OCCCN1Cc2ccccc2C1`, the ΔTm in test [1] worked out at 0.36 °C; in test [2], 0.41 °C.
Taken in the same sequence, the figures for `NC(=O)C1CN(CCCCC(c2ccc(F)cc2)c2ccc(F)cc2)CCN1CC(=O)Nc1c(Cl)cc(N)cc1Cl` (configuration not stated) were -9.38 °C and -3.73 °C.
As for `NC(=O)c1cccc(NC(=O)CCC(=O)NCCc2cn(CCNS(=O)(=O)c3cccc(C(=O)O)c3)nn2)c1`, the ΔTm in test [1] was -1.91 °C; in test [2], -1.38 °C.
Taken in the same sequence, the figures for `COC(=O)CC[C@H](NC(=O)[C@H](Cc1c[nH]c2ccccc12)NC(=O)OCc1ccccc1)C(=O)N[C@@H](Cc1cnc[nH]1)C(=O)N[C@@H](CC(=O)OC)C(=O)CF` (Cbz-WE(OMe)HD(OMe)-CH2F) were 0.1 °C and -1.05 °C.
`O=C(c1cc(Cc2n[nH]c(=O)c3ccccc23)ccc1F)N1CCN(C(=O)C2CC2)CC1`: the ΔTm in test [1] is -0.16 °C; in test [2] it was 0.96 °C.
For `Cc1nc(-c2cnc(NC(C)C)n(C)c2=O)ccc1Oc1ccnc(-c2cnn(C)c2)c1`, the ΔTm in test [1] was 0.6 °C; in test [2] it was -1.33 °C.
With `CCc1c(C#N)c(S[C@@H](C(N)=O)c2ccccc2)nc(N(C)C)c1C#N`, the ΔTm was -0.11 °C in test [1] and 2.36 °C in test [2].
Taken in the same sequence, the figures for `COC(=O)c1ccc(CN2CCC(O)(Cn3cnc4c(-c5ccc(CN)cc5)n(C)nc4c3=O)CC2)c(Cl)c1` were -0.37 °C and 1.55 °C.
For `CN(C)CCCCC(=O)Nc1ccc(NC(=S)NC(=O)c2ccc(C(C)(C)C)cc2)cc1`, in that order: -0.03 °C and -0.35 °C.
Taken in the same sequence, the figures for `O=C(O)CCNc1cc(N2CCc3ccccc3CC2)nc(-c2ccccn2)n1` were 0.4 °C and 0.6 °C.
For the compound `CCc1nc2c(C)cc(N3CCN(CC(=O)N4CC(O)C4)CC3)cn2c1N(C)c1nc(-c2ccc(F)cc2)c(C#N)s1`, the results for the ΔTm in test [1] and in test [2] were 0.26 °C and -0.12 °C, respectively.
For `O=S(=O)(O)c1ccc2cc(/N=N/c3cc(S(=O)(=O)O)c4cccnc4c3O)ccc2c1`, in that order: -0.08 °C and -0.89 °C.
Turning to `CN(C)CCCNC(=O)c1ccc(-c2cc(O)c3ncccc3c2)cc1`, the results for the ΔTm in test [1] and in test [2] were 0.49 °C and -1.48 °C, respectively.
